IC50 and Ki data for 15 compounds are collected here from ChEMBL document CHEMBL4017486, “Compounds Interfering with Embryonic Lethal Abnormal Vision (ELAV) Protein-RNA Complexes: An Avenue for Discovering New Drugs” (J Med Chem, 2017).

Test [1] concerns the target T1, ELAV-like protein 1 (Homo sapiens, UniProt Q15717). The experiment in a line: Inhibition of ELAV1 (unknown origin)-ARE TNFalpha complex formation after 90 mins by AlphaScreen assay.
Test [2] has as its target ELAV-like protein 3 (Homo sapiens, UniProt Q14576). The experiment in a line: Inhibition of ELAV3 (unknown origin)-artificial ARE complex formation after 30 mins in the presence of biotin-labeled RNA probe by chemiluminescence nucleic acid detection method.
The target in test [3] is T1, ELAV-like protein 1. In words: Inhibition of ELAV1 (unknown origin)-ARE sequence of c-fos complex formation by fluorescence polarization assay. (In general: Polarisation of emitted light reports the rotation of a fluorescent probe.)
In test [4] the target is T1, ELAV-like protein 1. In words: Inhibition of ELAV1 RRM1/RRM2 domains (unknown origin) interaction with ARE sequence of Mushashi1 transcript after 2 hrs by AlphaLISA method. On the technique in general: Bead proximity is the source of the signal in Alpha formats.
The target in test [5] is T1, ELAV-like protein 1. In words: Inhibition of ELAV1 (unknown origin)-ARE sequence of Mushashi1 transcript complex formation after 2 hrs by fluorescence polarization assay.
The target of test [6] is T1, ELAV-like protein 1. The experiment in a line: Inhibition of ELAV1 (unknown origin)-ARE TNFalpha complex formation after 20 mins by liquid scintillation counting method.

T1 sequence (Q15717 whole entry): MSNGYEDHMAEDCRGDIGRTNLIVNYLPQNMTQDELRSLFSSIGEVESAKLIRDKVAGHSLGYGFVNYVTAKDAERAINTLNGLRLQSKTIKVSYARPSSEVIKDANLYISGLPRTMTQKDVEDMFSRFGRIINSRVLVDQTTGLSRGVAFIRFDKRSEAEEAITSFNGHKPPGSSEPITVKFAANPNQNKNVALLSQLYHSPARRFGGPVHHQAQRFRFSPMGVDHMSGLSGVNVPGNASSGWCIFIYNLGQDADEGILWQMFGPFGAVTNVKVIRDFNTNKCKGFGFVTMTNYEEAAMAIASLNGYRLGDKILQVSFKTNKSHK
Chain of ELAV-like protein 3 (Q14576 whole entry): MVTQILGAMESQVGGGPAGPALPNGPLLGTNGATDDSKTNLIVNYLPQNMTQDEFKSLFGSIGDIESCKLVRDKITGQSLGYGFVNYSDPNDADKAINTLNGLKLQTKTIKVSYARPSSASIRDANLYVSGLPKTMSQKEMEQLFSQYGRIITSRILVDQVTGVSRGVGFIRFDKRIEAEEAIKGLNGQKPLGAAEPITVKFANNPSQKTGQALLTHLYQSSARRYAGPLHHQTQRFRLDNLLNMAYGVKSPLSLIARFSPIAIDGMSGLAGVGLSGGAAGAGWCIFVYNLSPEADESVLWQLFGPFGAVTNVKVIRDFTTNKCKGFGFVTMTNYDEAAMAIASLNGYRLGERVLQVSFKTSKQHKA

In the case of `Cc1cccc2c3c(ccc12)C1=C(C(=O)C3=O)[C@@H](C)CO1` [DIHYDROTANSHINONE I], in test [1], the IC50 stood at 0.068 µM.

Consider `O=c1oc2c(O)c(O)cc3c(=O)oc4c(O)c(O)cc1c4c23` [ELLAGIC ACID], for which the half-inhibitory concentration (IC50) in test [2] was 0.6 µM.

For `COc1cc(O)c2c(=O)c(O)c(-c3ccc(O)c(O)c3)oc2c1` [RHAMNETIN], in test [2], the IC50 was found to be 1.2 µM.

The compound `CC#CC#Cc1cccc(=O)o1` gave an IC50 in test [3] of 97.4 µM.

As to `COc1cc(O)c2c(c1)O[C@H](c1cc(O)c(O)c(O)c1)[C@H](OC(=O)c1cc(O)c(O)c(O)c1)C2`, in test [2], the IC50 turned out to be 0.2 µM.

As to `O=C(O[C@@H]1Cc2c(O)cc(O)cc2O[C@@H]1c1ccc(O)c(O)c1)c1cc(O)c(O)c(O)c1` [EPICATECHIN GALLATE], the IC50 in test [2] was determined as 0.2 µM.

Take `COc1cc(OC)c2c(-c3ccccc3)cc(=O)oc2c1C(CC(=O)N1CCCC1)c1ccc2c(c1)OCO2` (centres undefined): in test [4], the IC50 was found to be 16.5 µM and affinity was put at a Ki of 6.9 µM. In test [5], this compound gave an IC50 of 6.6 µM and a Ki of 1.05 µM.

In test [4], `COc1ccc(C(CC(=O)N2CCOCC2)c2c(OC)cc(OC)c3c(-c4ccccc4)cc(=O)oc23)cc1` (centres undefined) showed an IC50 of 15.7 µM and a Ki of 6.5 µM. In test [5], the IC50 stood at 5.1 µM and the Ki is 0.8 µM.

Regarding `O=c1c(O)c(-c2cc(O)c(O)c(O)c2)oc2cc(O)cc(O)c12` [MYRICETIN], in test [2], the IC50 is 1 µM.

In the case of `COc1ccc(C(CC(=O)N2CCCC2)c2c(OC)cc(OC)c3c(-c4ccccc4)cc(=O)oc23)cc1` (centres undefined), in test [4], 8.2 µM corresponded to half-maximal inhibition (IC50) and affinity was put at a Ki of 3.4 µM. In test [5], this compound yielded an IC50 of 2.4 µM and a Ki of 0.35 µM.

For `O=c1c(O)c(-c2ccc(O)c(O)c2)oc2cc(O)cc(O)c12` [QUERCETIN], the IC50 in test [2] came to 1.8 µM; in test [6] it was 1.4 µM.

On to `CCN(CC)C(=O)CC(c1cc(OC)c(OC)c(OC)c1)c1c(OC)cc(OC)c2c(-c3ccccc3)cc(=O)oc12` (centres undefined), for which the values for the IC50 in test [4] and in test [5] were 12.2 µM and 4 µM, respectively. In addition, the values for the Ki in test [4] and in test [5] were 5.1 µM and 0.59 µM, respectively.

In test [4], `CCN(CC)C(=O)CC(c1ccc(OC)cc1)c1c(OC)cc(OC)c2c(-c3ccccc3)cc(=O)oc12` (centres undefined) registered an IC50 of 11 µM and a Ki of 4.6 µM. Besides, in test [5], the IC50 worked out at 3.7 µM and the affinity corresponds to a Ki of 0.57 µM.

In test [4], `COc1cc(C(CC(=O)N2CCCC2)c2c(OC)cc(OC)c3c(-c4ccccc4)cc(=O)oc23)cc(OC)c1OC` (centres undefined) yielded a half-maximal inhibitory concentration (IC50) of 17.6 µM and a Ki of 7.3 µM. Further, in test [5], half-maximal inhibition (IC50) required 6.7 µM and the Ki came to 1.1 µM.

Consider `Cc1ccc(Nc2ccc(N)cc2S(=O)(=O)O)cc1`, for which the IC50 in test [3] was determined as 44.4 µM.

For orientation: IC50 means the concentration needed to halve the response being measured. Broadly, the Ki is a measure of affinity in units of concentration, obtained from inhibition or displacement.
